Patent US20260250257A1, “ANTIBACTERIAL AND SYNERGISTIC ACTIVE COMPOUND AND USE THEREOF” (EAST CHINA UNIVERSITY OF SCIENCE AND TECHNOLOGY, priority 2023, published 2026)
Converted amounts (≈) assume the structure as drawn.

Legend:
Format in all cases: cell-based
[1] = system: ATCC19606 strain (Acinetobacter baumannii); test: Checkerboard antibacterial synergistic activity test with polymyxin E (FIC); parameters: key: FIC≤0.5 synergy; 0.5–1 additive; 1–2 indifferent; ≥2 antagonism; details: combined with polymyxin E
Outline: (§1)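 Polymyxin E was diluted in MH broth to 16–0.015 μg/ml and the test compound to 256–4 μg/ml (two-fold series, pre-mixing concentrations), combined checkerboard-style in 96-well plates with bacterial suspension and blank controls, and incubated at 37° C. for 16 h. FIC ≤0.5 was scored synergistic, >0.5 to <1 additive, 1–2 indifferent, ≥2 antagonistic.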

[2] = system: ATCC9027 strain (Pseudomonas aeruginosa); test: as above; parameters: key: FIC≤0.5 synergy; 0.5–1 additive; 1–2 indifferent; ≥2 antagonism; details: combined with polymyxin E
Outline: as §1

[3] = system: ATCC13883 strain (Klebsiella pneumoniae); test: as above; parameters: key: FIC≤0.5 synergy; 0.5–1 additive; 1–2 indifferent; ≥2 antagonism; details: combined with polymyxin E
Outline: as §1

[4] = system: ATCC25922 strain (Escherichia coli); test: as above; parameters: key: FIC≤0.5 synergy; 0.5–1 additive; 1–2 indifferent; ≥2 antagonism; details: combined with polymyxin E
Outline: as §1

[5] = system: ATCC19606 strain (Acinetobacter baumannii); test: Broth microdilution, antibacterial activity of the compound used alone
From the text: (§2) The broth microdilution method was used to test the antibacterial effects of the compounds of the present invention against various Gram-negative bacterial strains when used alone.

[6] = system: ATCC9027 strain (Pseudomonas aeruginosa); test: as above
From the text: as §2

[7] = system: ATCC13883 strain (Klebsiella pneumoniae); test: as above
From the text: as §2

[8] = system: ATCC25922 strain (Escherichia coli); test: as above
From the text: as §2

| Structure (SMILES) | Synergistic activity (FIC value) ATCC19606 [1] | Synergistic activity (FIC value) ATCC9027 [2] | Synergistic activity (FIC value) ATCC13883 [3] | Synergistic activity (FIC value) ATCC25922 [4] | Antibacterial activity of the compound of Formula I, ATCC19606 [5] [µg/mL] | Antibacterial activity of the compound of Formula I, ATCC9027 [6] [µg/mL] | Antibacterial activity of the compound of Formula I, ATCC13883 [7] [µg/mL] | Antibacterial activity of the compound of Formula I, ATCC25922 [8] [µg/mL] | MIC ([5]; read-out: Antibacterial activity of the compound of Formula I, ATCC19606) [µg/mL] | MIC ([6]; read-out: Antibacterial activity of the compound of Formula I, ATCC9027) [µg/mL] | MIC ([7]; read-out: Antibacterial activity of the compound of Formula I, ATCC13883) [µg/mL] | MIC ([8]; read-out: Antibacterial activity of the compound of Formula I, ATCC25922) [µg/mL] |
| --- | --- | --- | --- | --- | --- | --- | --- | --- | --- | --- | --- | --- |
| Cc1ccc(NC(=O)Nc2cccc(-c3nc(N=C(N)N)sc3C)c2)c(C)c1 [Compound I-132] | 0.03 | 0.28 | 0.16 | 0.18 | 256 | 256 | 256 | 256 |  |  |  |  |
| NC(N)=Nc1nc(-c2cccc(NC(=O)Nc3ccc(Cl)cc3Cl)c2)c(Cl)s1 [Compound I-133] | 0.38 | 0.04 | 0.19 | 0.04 | 256 | 256 | 256 | 256 |  |  |  |  |
| Clc1ccc(Oc2ccccc2)c(-c2coc(N=C3NCCCN3)n2)c1 [Compound I-134] | 1.25 | 0.52 | 0.53 | 1.25 | 256 | 256 | 256 | 256 |  |  |  |  |
| Nc1cc(Oc2ccccc2)cc(-c2c[nH]c(N=C3NCCCN3)n2)c1 [Compound I-135] | 0.26 | 0.53 | 0.75 | 0.51 | 256 | 256 | 256 | 256 |  |  |  |  |
| Fc1cc(-c2csc(N=C3NCCCN3)n2)c(F)cc1Oc1ccccc1 [Compound I-136] | 1.25 | 1.25 | 1.25 | 0.5 | 256 | 256 | 256 | 256 |  |  |  |  |
| Oc1ccc(-c2ccccn2)c(-c2c[se]c(N=C3NCCCN3)n2)c1 [Compound I-137] | 1.25 | 1.25 | 1.25 | 0.5 | 256 | 128 | 128 | 128 |  |  |  |  |
| CNC(=O)c1ccc(-c2ccncn2)c(-c2csc(N=C3NCCCN3)n2)c1 [Compound I-138] | 1.25 | 1.25 | 1.25 | 1.25 | 256 | 256 | 256 | 256 |  |  |  |  |
| Cc1oc(N=C2NCCCN2)nc1-c1cc(NS(C)(=O)=O)ccc1-c1ccco1 [Compound I-139] | 0.75 | 1.25 | 1.25 | 0.5 | 256 | 256 | 256 | 256 |  |  |  |  |
| FC(F)(F)c1ccc(-c2cccs2)c(-c2c[nH]c(N=C3NCCCN3)n2)c1 [Compound I-140] | 0.51 | 0.52 | 1.25 | 1.25 | 256 | 256 | 256 | 256 |  |  |  |  |
| O=C(NC1CC1)c1ccc(-c2nccs2)c(-c2nc(N=C3NCCCN3)sc2Br)c1 [Compound I-141] | 0.51 | 0.52 | 1.25 | 1.25 | 256 | 256 | 256 | 256 |  |  |  |  |
| Cc1ccccc1Oc1ccccc1-c1nc(N=C2NCCCN2)oc1Cl [Compound I-142] | 0.31 | 0.06 | 0.09 | 0.14 | 256 | 256 | 256 | 256 |  |  |  |  |
| Cc1ccc(Oc2ccccc2-c2csc(NC3=NCCCN3)n2)c(C)c1 [Compound I-143] | 0.38 | 0.04 | 0.19 | 0.04 |  |  |  |  | 256 (≈ 676 µM) | 256 (≈ 676 µM) | 256 (≈ 676 µM) | 256 (≈ 676 µM) |
| COc1ccc(Oc2ccccc2-c2nc(N=C3NCCCN3)sc2C)c(C)c1 [Compound I-144] | 0.03 | 0.28 | 0.16 | 0.18 | 256 | 256 | 256 | 256 |  |  |  |  |
| Cc1sc(N=C2NCCCN2)nc1-c1ccccc1Oc1ccccc1Cl [Compound I-145] | 0.04 | 0.28 | 0.13 | 0.2 | 256 | 256 | 256 | 256 |  |  |  |  |
| Clc1ccc(Oc2ccccc2-c2c[nH]c(N=C3NCCCN3)n2)c(Cl)c1 [Compound I-146] | 0.31 | 0.06 | 0.09 | 0.14 | 256 | 256 | 256 | 256 |  |  |  |  |
| Ic1ccccc1Oc1ccccc1-c1csc(N=C2NCCCN2)n1 [Compound I-147] | 0.03 | 0.28 | 0.16 | 0.18 | 256 | 64 | 128 | 128 |  |  |  |  |
| Clc1sc(N=C2NCCCN2)nc1-c1ccccc1Oc1ccc(I)cc1I [Compound I-148] | 0.31 | 0.06 | 0.09 | 0.14 | 256 | 256 | 256 | 256 |  |  |  |  |
| COc1ccc(Oc2ccccc2-c2csc(N=C3NCCCN3)n2)c(OC)c1 [Compound I-149] | 0.03 | 0.28 | 0.16 | 0.18 | 256 | 256 | 256 | 256 |  |  |  |  |
